Measured values reported in patent publication US4442093A, “Method for administering 24,25-dihydroxycholecalciferol to persons suffering from hypercalcemia” (Kureha Kagaku Kogyo Kabushiki Kaisha, priority 1981, dated 1984).

Columns and labels:
[1] = system: mononucleates (lymphocytes) of peripheral blood; assay: Blastoid-transformation of rat lymphocytes in peripheral blood, 3H-TdR uptake (Example 13); assay type: in vivo
Protocol: The effect of the present compound on the blastoid-transformation of rat lymphocytes in the peripheral blood was examined as follows: After mixing each of the blood specimens taken from the respective rats of the four groups in Example 11 added with heparin and RPMI-1640 culture medium at a weight ratio of 1:1, the mixture was added to Ficoll-Paque solution, and the thus obtained mixture was subjected to centrifugal separation at 400 G for 20 min to collect the layer of mononucleates. After washing the thus collected mononucleates three times with PRMI-1640 culture medium (in a liquid state), the washed mononucleates were suspended into RPMI-1640 culture medium added with 10% by weight of calf serum to be in concentration of 1.5×10^6 cells/ml. Hundred microliters of the thus prepared suspension was placed in the pit of Pharcon microtest II plate, and after adding a substance promoting cell division (hereinafter referred to as mitogen) and RPMI-1640 culture medium added with 10% by weight of calf serum to the thus placed suspension to make the total volume 200 microliters, the thus prepared mixture was incubated for 72 hours under a gas (a 95:5 by volume mixture of air and carbon dioxide saturated with moisture) flow at 37° C. ^3 H-methylthymidine of specific activity of 5 Ci/mmol was added to the mixture during incubation at the time 24 hours before the incubation was over in an amount corresponding to 0.5 micro Ci. After the incubation was over, the cells in the culture were collected by filtering the cultured mixture, and the amount of radioactive isotope uptaken into the cells was determined by a liquid scintillation counter. For reference, the mitogen used in the present test is concanavalin A for T-cell or lipopolysaccharide for B-cell.

[2] = system: lymphocytes from a healthy person; assay: Effect of plasma of treated renal failure/uremia patients on blastoid-transformation of lymphocytes from a healthy person (Example 14); assay type: cell-based, human; settings: 0.5 to 1.0 µg/day oral, 1 to 6 months
Source text: Effects of plasma derived from a patient suffering from chronic renal failure or uremia treated with the present compound or not treated therewith on blastoid-transformation of lymphocytes from a healthy person Heparinized fresh peripheral blood of a normal person was mixed with Ficoll-Paque solution, and after subjecting the mixture to ultracentrifugal separation, the layer of lymphocyte was collected, and after washing the layer three times with phosphate buffer solution, the washed lymphocytes were dispersed in suspension in RPMI-1640 culture medium (liquid) at a concentration of 6×10^5 cells/ml. […] Then, the specimen was harvested to determine the uptake of ^3 H-TdR by the lymphocytes. In addition, the plasma of each patient was collected two times, namely, once before hemodialysis and once after hemodialysis, and accordingly the total patient system of the present test consists of two large groups one of which is administered and the other of which is not administered with the compound, and each large group consists of two groups one of which is not yet hemodialysed and the other of which has been already hemodialysed.

[3] = Acute oral mammalian toxicity; set-up: species or system male mouse of ICR-strain; settings: mouse, in vivo, read-out: LD50 (per os)
Protocol: 0.3 ml of ethanolic solution containing 150 mg of 24R,25-(OH)2 -D3 was suspended in 15 ml of Panacete® 810 (triglyceride ester of C8 and C10 -fatty acid, made by Nippon Oil & Fats Co., Ltd.) to obtain a suspension containing 2% by weight of ethanol. The thus prepared composition was orally administered to a group of male mouse of ICR-strain consisting of 10 animals at a dose rate of 150 mg of 24R,25-(OH)2 -D3 per kg.

[4] = system: inorganic phosphate in serum; assay: Serum inorganic phosphate in rats given puromycin aminonucleoside (Example 19); assay type: in vivo, male Wistar rats; settings: hyperphosphatemia due to puromycin-amino-nucleoside
Protocol: Puromycin aminonucleoside (hereinafter abbreviated as AN) was dissolved in physiological saline solution to be the concentration of 15 mg of AN/ml.
The thus prepared solution was subcutaneously administered to […] in 9th to 10th week after birth divided equally into 3 groups once a day for continuous 5 days at a daily dose rate of 15 mg/kg body weight, and the administration of AN was suspended for the next 2 weeks. This cycle of 5 days of administration followed by 2 weeks of suspension of administration was repeated 5 times, and from the commencement of the 4th cycle, drinking water was substituted by one of the compositions for oral administration prepared in Example 18, namely, Composition A or Composition B to be taken ad lib by each one of the three groups of the rats for 38 days therefrom. […] As control, a group consisting of 8 male Wistar rats was used without giving AN and with the oral administration of aqueous 0.1% by weight isopropyl alcohol solution taken ad lib during the same 38 days as above. As comparative example, another group consisting of 8 male Wistar rats was used with the same administration of AN as in the test groups and with the oral administration of aqueous 0.1% by weight isopropyl alcohol taken ad lib as in the control group.

[5] = system: calcium level in serum; assay: Serum calcium in rats transplanted with Walker-carcinosarcoma 256 (Example 5); assay type: in vivo, Sprague-Dawley rat
Protocol: After injecting 0.5 ml of ascites of Walker-carcinosarcoma 256 adjusted to contain 2×10^6 tumour cells per microliter into the upper part of the right thigh of a Sprague-Dawley rat of body weight of 90-140 g, a solution of 24R,25-(OH)2 -D3 in the triglyceride ester used in Example 1 at a concentration of 0.5 microgram/100 microliter was orally administered once a day for continuous 7 days at a daily dose rate of 20 micrograms of 24R,25-(OH)2 -D3 per kg body weight of the rat. […] The blood specimen was also collected in the same manner from a rat of the same strain injected with the ascites in the same manner as in the first rat, however, only administered with the triglyceride ester. The two levels of calcium in the respective sera of the two groups were compared in Table 5.

[6] = 100 µg/kg/day oral 12 days with puromycin aminonucleoside

C=C1CC[C@H](O)C/C1=C/C=C1\CCC[C@]2(C)[C@@H]([C@H](C)CC[C@@H](O)C(C)(C)O)CC[C@@H]12 [24R,25-(OH)2 -D3]
Uptake of 3H-TdR in presence of Concanavalin A [1, 6]: 3995 ± 412 cpm | Uptake of 3H-TdR in presence of Lipopolysaccharide [1, 6]: 3568 ± 372 cpm | Number of mononucleate (ratio, first group = 1.00) ([1]; po, 0.1 mg/kg, 288 h): 0.68 ± 0.17 | Uptake of 3H-TdR in the presence of lectin from kidney beans ([2]; after hemodialysis): 222480 ± 21253 cpm | Uptake of 3H-TdR in the presence of lipopolysaccharide ([2]; after hemodialysis): 129984 ± 51385 cpm | Uptake of 3H-TdR in the presence of lectin from kidney beans ([2]; before hemodialysis): 228906 ± 19081 cpm | Uptake of 3H-TdR in the presence of lipopolysaccharide ([2]; before hemodialysis): 158950 ± 48245 cpm | LD50 at 336 h [3]: > 150 mg/kg | inorganic phosphate level in serum [4]: significant reduction of the inorganic phosphate level | Calcium level in serum after one week of transplantation ([5]; 20 µg/kg/day oral, 7 days): 11.2 ± 0.6 mg/dL | Calcium level in serum before transplantation ([5]; before transplantation (baseline)): 10.5 ± 0.3 mg/dL
